Experiment [1] has as its target T1, human cannabis CB1 receptor (Homo sapiens, UniProt P21554).
T1 construct: expressed in transfected cells; host or cells: human embryonic kidney (HEK) cells, Semliki Forest Virus system, membrane preparation
The experiment is described as follows: Affinity for cannabinoid CB1 receptors, [3H]-CP-55,940 radioligand binding on HEK cell membranes. The protocol: The affinity of the compounds of the invention for cannabinoid CB1 receptors was determined using membrane preparations of human embryonic kidney (HEK) cells in which the human cannabis CB1 receptor is transiently transfected using the Semliki Forest Virus system in conjunction with [3H]-CP-55,940 as radioligand. After incubation of a freshly prepared cell membrane preparation with the [3H]-ligand, with or without addition of compounds of the invention, separation of bound and free ligand was performed by filtration over glassfiber filters. Radioactivity on the filter was measured by liquid scintillation counting.
The compounds of formula (I) show an excellent affinity for the CB1 receptor, determined with the experimental conditions described in Devane et al. Mol. Pharmacol. 34 (1988) 605-613.

The conditions of experiment [2]: wild-type versus CB1 receptor knockout mice; cited from earlier work.
The conditions of experiment [3]: doses of 10 and 20 mg daily; cited from earlier work.

The values below come from patent US7781593B2, “5-phenyl-nicotinamide derivatives” (Hoffmann-La Roche Inc., priority 2006, dated 2010).

Usually Ki stands for the equilibrium dissociation constant of an inhibitor or competing ligand from its target. A low value points to a stronger hold on the target.

T1 sequence (P21554 whole entry): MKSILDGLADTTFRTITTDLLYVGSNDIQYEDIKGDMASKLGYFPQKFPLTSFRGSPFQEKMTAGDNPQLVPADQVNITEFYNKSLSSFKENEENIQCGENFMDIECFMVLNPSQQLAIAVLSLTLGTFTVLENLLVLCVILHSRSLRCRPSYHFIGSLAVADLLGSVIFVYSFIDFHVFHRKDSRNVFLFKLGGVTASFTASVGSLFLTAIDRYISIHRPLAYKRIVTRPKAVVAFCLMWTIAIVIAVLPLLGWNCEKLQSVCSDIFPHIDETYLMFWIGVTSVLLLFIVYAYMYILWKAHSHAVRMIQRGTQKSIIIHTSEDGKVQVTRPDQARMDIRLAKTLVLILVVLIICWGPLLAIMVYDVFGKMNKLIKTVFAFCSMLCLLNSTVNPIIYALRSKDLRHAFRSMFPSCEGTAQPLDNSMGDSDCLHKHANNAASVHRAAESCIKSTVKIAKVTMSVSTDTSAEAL

`O=C(N[C@@H]1CCCC[C@H]1O)c1cnc(CCC2CC2)c(-c2ccc(Cl)cc2)c1` [Example 2, 5-(4-Chloro-phenyl)-6-(2-cyclopropyl-ethyl)-N-((1R,2R)-2-hydroxy-cyclohexyl)-nicotinamide] came in with an inhibition constant (Ki) in experiment [1] of 26 nM. That is a double-digit nanomolar value.
In turn, `O=C(N[C@@H]1CCCC[C@H]1O)c1cnc(CCc2cncnc2)c(-c2ccc(C(F)(F)F)cc2)c1` [Example 3, N-((1R,2R)-2-Hydroxy-cyclohexyl)-6-(2-pyrimidin-5-yl-ethyl)-5-(4-trifluoromethyl-phenyl)-nicotinamide] had an inhibition constant (Ki) in experiment [1] of 60 nM.
Still for that read-out and setting: with `O=C(N[C@@H]1CCCC[C@H]1O)c1cnc(CCc2cccnc2)c(-c2ccc(Cl)cc2)c1` [Example 7, 5-(4-Chloro-phenyl)-N-((1R,2R)-2-hydroxy-cyclohexyl)-6-(2-pyridin-3-yl-ethyl)-nicotinamide] the figure was 11 nM.
Consider `Cc1c(C(=O)NN2CCCCC2)nn(-c2ccc(Cl)cc2Cl)c1-c1ccc(Cl)cc1` [SR 141716], for which the food intake entry in experiment [2] is on record as “reduces food intake in wild-type but not knockout mice”. The “body weight compared to placebo” value in experiment [3] is recorded as “significantly reduced body weight”.
